Experimental findings from ChEMBL document CHEMBL5252632, “Small molecule-based fluorescent probes for the detection of α-Synuclein aggregation states” (Bioorg Med Chem Lett, 2023) are described below.

The target of the first assay is T1, Alpha-synuclein (Homo sapiens, UniProt P37840). Briefly: Binding affinity to human recombinant Alpha-synuclein assessed as dissociation constant by fluorometric method.
As usually defined, the Kd is the concentration at which binding is half-saturated. As to `O=S(=O)(O)c1cccc2c(-c3ccc(Nc4ccccc4)c4c(S(=O)(=O)O)cccc34)ccc(Nc3ccccc3)c12`, the Kd turned out to be 8.6 µM.

Regarding `O=S(=O)(O)c1ccc2cc(Nc3ccccc3)ccc2c1`, the Kd came out at 8.8 µM.

The next assay addresses T1, Alpha-synuclein. Description: Binding affinity to Alpha-synuclein (unknown origin) assessed as dissociation constant.
Turning to `COc1ccc2c(c1)sc(-c1ccc(N(C)C)cc1)[n+]2C`, the Kd was 118 µM.

Take `COc1ccc2c(c1)sc(-c1ccc(N3CCCCCCC3)cc1)[n+]2C`: the dissociation constant (Kd) came out at 118 µM.

With `COc1ccc2c(c1)sc(-c1ccc(N3CCCCCC3)cc1)[n+]2C`, the Kd stood at 118 µM.

Consider `COc1ccc2c(c1)sc(-c1ccc(N3CCCCC3)cc1)[n+]2C`, for which the Kd is 118 µM.

Regarding `COc1ccc2c(c1)sc(-c1ccc(N3CCOCC3)cc1)[n+]2C`, the Kd turned out to be 118 µM.

In another assay the target is Amyloid-beta precursor protein (Homo sapiens, UniProt P05067). Briefly: Binding affinity to amyloid beta (1 to 40) (unknown origin) aggregates assessed as dissociation constant.
Sequence of Amyloid-beta precursor protein (P05067 whole entry): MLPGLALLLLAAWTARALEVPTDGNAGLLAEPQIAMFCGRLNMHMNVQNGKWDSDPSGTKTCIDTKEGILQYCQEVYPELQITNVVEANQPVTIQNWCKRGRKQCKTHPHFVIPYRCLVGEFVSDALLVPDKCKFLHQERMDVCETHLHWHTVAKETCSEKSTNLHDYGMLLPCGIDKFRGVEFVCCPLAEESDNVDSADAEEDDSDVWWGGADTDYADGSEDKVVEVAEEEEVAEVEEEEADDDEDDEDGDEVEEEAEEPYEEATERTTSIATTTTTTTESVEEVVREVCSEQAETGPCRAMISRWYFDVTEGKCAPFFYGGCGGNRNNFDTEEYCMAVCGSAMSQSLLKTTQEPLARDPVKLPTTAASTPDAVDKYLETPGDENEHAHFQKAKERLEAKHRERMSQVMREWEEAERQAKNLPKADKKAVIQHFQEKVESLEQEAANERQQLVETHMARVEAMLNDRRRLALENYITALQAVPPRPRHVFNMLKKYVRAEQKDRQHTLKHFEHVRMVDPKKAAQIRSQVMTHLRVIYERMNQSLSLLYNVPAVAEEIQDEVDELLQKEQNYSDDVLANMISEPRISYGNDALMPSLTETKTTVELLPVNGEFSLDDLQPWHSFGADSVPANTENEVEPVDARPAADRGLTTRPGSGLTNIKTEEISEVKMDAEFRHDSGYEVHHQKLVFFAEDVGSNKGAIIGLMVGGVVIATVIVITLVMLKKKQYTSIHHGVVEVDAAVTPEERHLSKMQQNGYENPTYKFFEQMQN
For `COc1ccc2nc(-c3ccc(N4CCCCCC4)cc3)sc2c1`, the Kd turned out to be 0.22 µM.

`COc1ccc2nc(-c3ccc(N4CCCCC4)cc3)sc2c1`: the Kd is 0.22 µM.

Consider `COc1ccc2nc(-c3ccc(N4CCOCC4)cc3)sc2c1`, for which the Kd was 0.22 µM.

Consider `COc1ccc2nc(-c3ccc(N4CCCCCCC4)cc3)sc2c1`, for which the Kd is 0.22 µM.

`COc1ccc2nc(-c3ccc(N(C)C)cc3)sc2c1`: the Kd was 0.22 µM.

Turning to `CN(C)c1ccc2nc(/C=C/C=C/C=C(C#N)C#N)sc2c1`, the Kd was 0.048 µM.

Take `COc1ccc2nc(-c3ccc(N4CCCC4)cc3)sc2c1`: the Kd turned out to be 0.22 µM.

Another assay concerns the target T1, Alpha-synuclein. Briefly: Binding affinity to C-terminal His6-tagged human Alpha-synuclein fibrils (1 to 97 residues) expressed in Escherichia coli assessed as association constant by chromatography method.
Take `OCCOC(=C\C=C1N(c2ccccc2)c2cc3ccccc3cc2N1c1ccccc1)/C=C/c1n(-c2ccccc2)c2cc3ccccc3cc2[n+]1-c1ccccc1`: the Ka was found to be 380000 M⁻¹.
